Experiment [1] has as its target platelet P2Y12 receptor (Homo sapiens, UniProt Q9H244). The conditions noted are these: well-known in the art; cited from earlier work.
Experiment [2] concerns S. epidermidis bacteria. Kind of experiment: Radiotracer uptake into bacteria, selectivity over mammalian cells (Example 4). It counts as cell-based. The following applies: 2 MBq tracer, 1 h at 37° C. Here is the method:
S. epidermidis bacteria were grown overnight in tryptic soy broth (TSB) at 37° C., with shaking at 250 rpm. The overnight culture was diluted to OD600 0.1 and incubated until mid-exponential phase was reached. 1×10^8 CFU were resuspended in 1 ml RPMI 1640. […] Bacteria and non-adherent cells were harvested by centrifugation (600×g, 5 min) and washed three times by successive centrifugations. Cell supernatants were collected in scintillation vials. After washing, the cells were transferred into scintillation vials. Adherent cells were washed three times with fresh medium (McCoy's 5A medium plus 10% foetal bovine serum). Supernatants were collected into scintillation vials. Adherent cells were detached by trypsin treatment and placed into scintillation vials. The scintillation vials for cells and supernatants were counted by gamma counter. Results were obtained as counts per min. Results were normalised for controls (no cells) and by calculating the percentage of activity in the cell containing scintillation vials compared with the total counts (cells and supernatant combined).

Experiment [3] has as its system HT29 cells. Kind of experiment: Radiotracer uptake into HT29 cells. It counts as cell-based, human. The following applies: 2 MBq tracer, 1 h at 37° C. Here is the method:
(§1) THP1 (ATCC® TIB-202™) and HL60 (ATCC® CCL-240™) cell lines were grown in RPMI 1640 tissue culture medium supplemented with L-glutamine, 10% foetal calf serum and 1% penicillin/streptomycin at 37° C. and 5% CO2. HT29 cell line (ATCC® HTB-38) was grown in McCoy's 5A medium and 10% foetal bovine serum at 37° C. and 5% CO2.
(§2) Non-adherent cell lines (HL60, THP1; 1×10^6 cells ml^−1) were harvested, washed and resuspended in 1 ml tissue culture medium. The adherent cells HT29 were maintained in 6-well plates at 80% confluence.
(§3) Bacteria and non-adherent cells were harvested by centrifugation (600×g, 5 min) and washed three times by successive centrifugations. Cell supernatants were collected in scintillation vials. After washing, the cells were transferred into scintillation vials. Adherent cells were washed three times with fresh medium (McCoy's 5A medium plus 10% foetal bovine serum). Supernatants were collected into scintillation vials. Adherent cells were detached by trypsin treatment and placed into scintillation vials. The scintillation vials for cells and supernatants were counted by gamma counter. Results were obtained as counts per min. Results were normalised for controls (no cells) and by calculating the percentage of activity in the cell containing scintillation vials compared with the total counts (cells and supernatant combined).

Experiment [4] concerns HL60 cells. Kind of experiment: Radiotracer uptake into HL60 cells. Format: cell-based, human. The conditions noted are these: 2 MBq tracer, 1 h at 37° C. Here is the method:
as §1, §2, §3

Experiment [5] concerns platelet suspensions containing bacteria. As to the kind of experiment: Radiotracer uptake into platelet suspensions containing bacteria. It counts as cell-based, human. The conditions noted are these: 2 MBq tracer, 1 h at 37° C. Here is the method: Preparation of human washed platelets: a Blood sample was collected from healthy volunteers on Acid Citrate Dextrose (ACD: 93 mM Na3-citrate, 7 mM citric acid, 14 mM dextrose, pH 6.0) containing 1 U/ml apyrase in a volume ratio of ACD to blood of 1:6. Blood was centrifuged for 5 s at 800×g followed by 5 min at 100×g to obtain platelet rich plasma (PRP). PRP was diluted 3-fold in ACD containing 1 U/ml apyrase ((Apyrase from potatoes, Grade I (A6132 Sigma-Aldrich)) and centrifuged at 1000×g to obtain a platelet pellet. The platelet pellet was resuspended at a concentration of 3×10^8 ml^−1 in Tyrode's buffer (137 mM NaCl, 12 mM NaHCO3, 2 mM KCl, 0.34 mM Na2HPO4, 1 mM MgCl2, 5.5 mM glucose, 5 mM Hepes, 0.35% Bovine Serum Albumine from Sigma Aldrich A3294) and Hepes refers to 4-(2-Hydroxyethyl)piperazine-1-ethanesulfonic acid, N-(2-Hydroxyethyl)piperazine-N′-(2-ethanesulfonic acid) (H4034, Sigma-Aldrich).
Bacteria and platelets were harvested by centrifugation (1000×g, 10 min) and washed three times by successive centrifugations (1000×g for 10 min). Supernatants were collected in scintillation vials. After washing, the cells were transferred into scintillation vials. Cells and supernatants were counted by gamma counter (2470 Wizard^2™ (Perkin Elmer))
Results were obtained as counts per min. […]

Experiment [6] concerns THP1 cells. Kind of experiment: Radiotracer uptake into THP1 cells. It counts as cell-based, human. The conditions noted are these: 2 MBq tracer, 1 h at 37° C. The protocol:
as §1, §2, §3

The text below walks through data of US20220143226A1, “USE OF TRIAZOLO[4,5-D]PYRIMIDINE DERIVATIVES” (UNIVERSITÉ DE LIÈGE, priority 2019, published 2022).

Sequence of platelet P2Y12 receptor (Q9H244 whole entry): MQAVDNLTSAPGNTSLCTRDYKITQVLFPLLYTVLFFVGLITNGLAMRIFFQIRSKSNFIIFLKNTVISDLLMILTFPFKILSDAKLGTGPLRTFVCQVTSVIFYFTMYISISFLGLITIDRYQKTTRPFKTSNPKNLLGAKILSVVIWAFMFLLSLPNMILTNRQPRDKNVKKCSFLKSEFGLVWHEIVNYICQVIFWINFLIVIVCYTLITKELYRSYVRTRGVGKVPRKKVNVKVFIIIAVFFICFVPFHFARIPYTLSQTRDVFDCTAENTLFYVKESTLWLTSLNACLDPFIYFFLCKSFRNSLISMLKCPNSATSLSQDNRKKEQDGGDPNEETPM

On to `CCCSc1nc(N[C@@H]2C[C@H]2c2ccc(F)c(F)c2)c2nnn([C@@H]3C[C@H](OCCO)[C@@H](O)[C@H]3O)c2n1` [Triafluocyl], for which, in experiment [1], the “binding to platelet P2Y12 receptor” value is on record as “binds the platelet P2Y12 receptor reversibly”.
`CCCSc1nc(NC2CC2c2ccc([18F])c(F)c2)c2nnn([C@@H]3C[C@H](OCCO)[C@@H](O)[C@H]3O)c2n1` (stereo partly drawn) [^18F-Triafluocyl, (1S,2S,3R,5S)-3-(7-((2-(3-fluoro-4-(fluoro-^18F)phenyl)cyclopropyl)amino)-5-(propylthio)-3H-[1,2,3]triazolo[4,5-d]pyrimidin-3-yl)-5-(2-hydroxyethoxy)cyclopentane-1,2-diol]: the uptake into bacteria entry in experiment [2] was “uptake into bacteria”. Moreover, the “uptake into HT29 (tumor) cells” value in experiment [3] is “no uptake was observed”. For the same compound, in experiment [4], the “uptake into HL-60 (leukocytic) cells” value is on record as “no uptake was observed”. Further, the “relative activity associated with the cell mixture, relative to the activity of 18F-FDG” value in experiment [5] was “about 10 fold”. Also, the “uptake into THP1 (leukocytic) cells” value in experiment [6] was “no uptake was observed”.
